Where only a bound is given, the exact number is not on record here.

Assay in all cases: pIC50, kinobeads binding competition
The target of experiment [1] is T1, EIF2AK3 (UniProt Q9NZJ5).
T1 sequence (whole entry): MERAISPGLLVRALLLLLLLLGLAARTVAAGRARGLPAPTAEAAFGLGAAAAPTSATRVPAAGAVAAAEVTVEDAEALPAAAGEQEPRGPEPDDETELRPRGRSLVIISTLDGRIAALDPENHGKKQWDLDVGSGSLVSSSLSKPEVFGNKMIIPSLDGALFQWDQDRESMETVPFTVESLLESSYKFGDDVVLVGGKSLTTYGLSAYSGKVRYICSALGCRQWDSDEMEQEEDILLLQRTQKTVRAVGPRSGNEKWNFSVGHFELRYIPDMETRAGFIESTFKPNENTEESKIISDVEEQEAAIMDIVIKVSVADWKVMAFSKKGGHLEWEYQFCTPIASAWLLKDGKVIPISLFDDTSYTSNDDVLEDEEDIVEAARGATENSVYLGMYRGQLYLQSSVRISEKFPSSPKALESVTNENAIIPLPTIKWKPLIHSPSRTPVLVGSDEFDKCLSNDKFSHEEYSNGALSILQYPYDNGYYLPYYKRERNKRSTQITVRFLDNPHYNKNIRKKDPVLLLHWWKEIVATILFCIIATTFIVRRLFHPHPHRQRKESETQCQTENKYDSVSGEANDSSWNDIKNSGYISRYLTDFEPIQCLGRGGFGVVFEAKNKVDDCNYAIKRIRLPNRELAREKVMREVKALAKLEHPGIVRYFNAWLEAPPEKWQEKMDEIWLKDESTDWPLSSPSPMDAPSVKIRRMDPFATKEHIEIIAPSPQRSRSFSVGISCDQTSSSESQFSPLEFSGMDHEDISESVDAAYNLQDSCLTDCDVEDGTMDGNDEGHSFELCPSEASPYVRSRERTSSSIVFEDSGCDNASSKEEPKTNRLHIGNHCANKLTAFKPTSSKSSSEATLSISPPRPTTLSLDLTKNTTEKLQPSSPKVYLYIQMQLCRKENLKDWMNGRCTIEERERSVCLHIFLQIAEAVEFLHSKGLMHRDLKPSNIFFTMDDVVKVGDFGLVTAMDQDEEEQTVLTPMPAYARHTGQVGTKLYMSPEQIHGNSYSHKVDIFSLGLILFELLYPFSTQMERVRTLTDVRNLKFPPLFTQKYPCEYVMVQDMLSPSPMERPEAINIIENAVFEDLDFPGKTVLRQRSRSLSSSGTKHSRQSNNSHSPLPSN
The settings on record: cell material: Lysate mix. The procedure, abridged: (§1)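 Either living Jurkat cells (60 min at 37 °C, then lysis) or lysates (60 min at 4 °C) were treated with nine compound concentrations from a top of 30 μM, in 1:4 steps for cells and 1:5 steps for lysates. The lysates were from Jurkat cells or a 1:1:1:1 mix of HEK293, K-562, HepG2 and placenta. Kinobeads-bound proteins were digested and quantified by TMT10 LC-MS/MS. pIC50 was calculated by logistic dose-response fitting (R drc package) of fold changes relative to vehicle, in biological duplicates.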

The target of experiment [2] is T2, JAK3 (UniProt P52333).
T2 sequence (whole entry): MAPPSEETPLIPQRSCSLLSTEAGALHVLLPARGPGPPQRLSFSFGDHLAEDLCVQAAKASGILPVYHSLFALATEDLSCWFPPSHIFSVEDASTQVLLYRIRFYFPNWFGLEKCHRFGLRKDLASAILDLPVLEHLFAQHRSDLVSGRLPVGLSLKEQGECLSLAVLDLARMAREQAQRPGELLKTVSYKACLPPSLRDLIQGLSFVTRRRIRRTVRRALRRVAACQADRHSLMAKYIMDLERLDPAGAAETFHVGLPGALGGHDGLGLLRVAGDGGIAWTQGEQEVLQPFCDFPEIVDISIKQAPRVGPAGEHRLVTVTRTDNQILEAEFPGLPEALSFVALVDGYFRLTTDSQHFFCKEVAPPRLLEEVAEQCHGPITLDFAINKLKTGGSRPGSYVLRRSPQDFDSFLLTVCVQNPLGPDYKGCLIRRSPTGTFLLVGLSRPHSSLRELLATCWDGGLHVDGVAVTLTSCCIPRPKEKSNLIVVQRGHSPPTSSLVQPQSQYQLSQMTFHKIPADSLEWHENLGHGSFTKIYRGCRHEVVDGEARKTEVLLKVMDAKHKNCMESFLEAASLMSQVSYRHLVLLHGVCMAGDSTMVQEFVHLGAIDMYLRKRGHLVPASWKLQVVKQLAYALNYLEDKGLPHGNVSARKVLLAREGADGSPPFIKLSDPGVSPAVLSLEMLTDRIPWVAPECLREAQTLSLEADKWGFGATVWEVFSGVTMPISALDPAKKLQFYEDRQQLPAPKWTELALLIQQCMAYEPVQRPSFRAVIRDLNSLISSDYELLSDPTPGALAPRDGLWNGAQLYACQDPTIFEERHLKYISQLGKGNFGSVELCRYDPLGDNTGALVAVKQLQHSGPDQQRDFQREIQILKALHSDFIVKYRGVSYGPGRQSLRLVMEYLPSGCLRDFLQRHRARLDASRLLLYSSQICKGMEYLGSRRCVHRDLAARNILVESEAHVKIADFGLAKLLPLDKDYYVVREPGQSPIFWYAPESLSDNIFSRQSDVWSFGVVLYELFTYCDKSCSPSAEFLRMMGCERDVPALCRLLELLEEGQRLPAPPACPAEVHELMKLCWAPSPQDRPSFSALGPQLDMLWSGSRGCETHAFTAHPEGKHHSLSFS
The procedure, abridged:
as §1

Experiment [3] deals with T3, PKMYT1 (UniProt Q99640).
T3 sequence (whole entry): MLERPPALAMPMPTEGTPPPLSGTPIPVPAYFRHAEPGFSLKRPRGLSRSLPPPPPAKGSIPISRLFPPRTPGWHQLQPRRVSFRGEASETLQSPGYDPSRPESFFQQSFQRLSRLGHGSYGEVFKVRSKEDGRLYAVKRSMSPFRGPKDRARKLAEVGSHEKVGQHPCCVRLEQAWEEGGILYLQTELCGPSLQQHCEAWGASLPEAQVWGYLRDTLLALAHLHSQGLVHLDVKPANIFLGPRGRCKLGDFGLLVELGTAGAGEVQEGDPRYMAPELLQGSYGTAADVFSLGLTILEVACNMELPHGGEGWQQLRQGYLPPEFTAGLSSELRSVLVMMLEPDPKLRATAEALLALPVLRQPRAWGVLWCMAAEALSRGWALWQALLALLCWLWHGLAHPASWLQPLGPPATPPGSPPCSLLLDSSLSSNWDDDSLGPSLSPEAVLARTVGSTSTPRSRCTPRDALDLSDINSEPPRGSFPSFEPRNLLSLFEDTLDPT
Put shortly:
as §1

For experiment [4], the target named is UniProt P35916. The settings on record: cell material: Lysate mix. Put shortly: as §1
Sequence of UniProt P35916 (P35916 whole entry): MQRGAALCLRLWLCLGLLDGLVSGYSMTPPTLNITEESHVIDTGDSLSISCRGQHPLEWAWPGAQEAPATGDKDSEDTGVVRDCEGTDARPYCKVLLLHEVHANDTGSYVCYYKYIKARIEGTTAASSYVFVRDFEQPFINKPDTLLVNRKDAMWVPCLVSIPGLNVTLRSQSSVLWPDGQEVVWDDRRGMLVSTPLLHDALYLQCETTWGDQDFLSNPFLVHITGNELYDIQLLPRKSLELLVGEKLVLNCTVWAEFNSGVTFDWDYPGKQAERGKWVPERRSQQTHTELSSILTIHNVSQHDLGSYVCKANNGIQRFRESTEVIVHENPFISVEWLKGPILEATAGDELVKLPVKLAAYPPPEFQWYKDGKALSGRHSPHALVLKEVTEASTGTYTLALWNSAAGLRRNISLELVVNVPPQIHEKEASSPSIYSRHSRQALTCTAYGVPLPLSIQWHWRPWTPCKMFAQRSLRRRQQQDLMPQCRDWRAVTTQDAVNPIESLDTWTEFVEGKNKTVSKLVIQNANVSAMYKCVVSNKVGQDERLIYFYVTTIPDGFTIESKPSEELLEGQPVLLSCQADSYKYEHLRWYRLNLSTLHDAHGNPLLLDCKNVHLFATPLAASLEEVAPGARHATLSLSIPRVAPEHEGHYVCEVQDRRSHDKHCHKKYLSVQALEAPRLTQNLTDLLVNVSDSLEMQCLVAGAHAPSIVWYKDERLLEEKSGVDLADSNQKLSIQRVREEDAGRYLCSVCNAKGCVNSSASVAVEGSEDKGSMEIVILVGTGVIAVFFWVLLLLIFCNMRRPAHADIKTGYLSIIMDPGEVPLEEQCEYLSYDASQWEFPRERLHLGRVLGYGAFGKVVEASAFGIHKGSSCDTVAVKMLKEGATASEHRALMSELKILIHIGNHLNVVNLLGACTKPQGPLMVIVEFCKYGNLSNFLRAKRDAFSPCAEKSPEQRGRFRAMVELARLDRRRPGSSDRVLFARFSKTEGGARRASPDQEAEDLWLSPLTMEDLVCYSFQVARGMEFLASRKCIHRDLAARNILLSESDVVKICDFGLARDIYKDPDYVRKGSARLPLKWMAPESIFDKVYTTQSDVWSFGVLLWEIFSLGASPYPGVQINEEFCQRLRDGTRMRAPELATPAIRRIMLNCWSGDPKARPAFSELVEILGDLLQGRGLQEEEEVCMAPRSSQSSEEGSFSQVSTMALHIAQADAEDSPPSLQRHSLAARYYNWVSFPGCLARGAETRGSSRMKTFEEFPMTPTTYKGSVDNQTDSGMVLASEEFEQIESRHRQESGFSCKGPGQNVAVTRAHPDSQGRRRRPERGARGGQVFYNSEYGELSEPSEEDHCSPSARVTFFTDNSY

On to `C#CCNC(=O)c1cc(Nc2cc(C)[nH]n2)nc(N2CCN(Cc3ccc(S(=O)(=O)F)cc3)CC2)n1`, for which the pIC50 was under 4.52 in experiment [1], 5.7 in experiment [2] (cell material: Lysate mix), under 4.52 in experiment [3] (cell material: Lysate mix) and under 4.52 in experiment [4].
`O=C(NCCNC(=O)c1cc(Nc2cc(C3CC3)[nH]n2)nc(N2CCN(Cc3ccc(S(=O)(=O)F)cc3)CC2)n1)OC1CC/C=C/CCC1` (stereo unspecified): the negative-log IC50 (pIC50) in experiment [1] is under 4.52; in experiment [2] (cell material: Jurkat cells) it was 5.39; in experiment [2] (cell material: Jurkat lysate), under 4.52; in experiment [2] (cell material: Lysate mix), under 4.52; in experiment [3] (cell material: Jurkat lysate), under 4.52; in experiment [3] (cell material: Lysate mix), under 4.52. The compound also showed a pIC50 in experiment [4] of under 4.52.
For `CCNC(=O)c1cc(Nc2cc(C3CC3)[nH]n2)nc(N2CCN(Cc3ccc(S(=O)(=O)F)cc3)CC2)n1`, the negative logarithm of the IC50 (pIC50) is under 4.52 in experiment [1], 5.97 in experiment [2] (cell material: Lysate mix), under 4.52 in experiment [3] (cell material: Lysate mix) and under 4.52 in experiment [4].
In the case of `Cc1cc(Nc2cc(C(=O)NCCNC(=O)OC3CC/C=C/CCC3)nc(N3CCN(Cc4ccc(S(=O)(=O)F)cc4)CC3)n2)n[nH]1` (stereo unspecified), the negative logarithm of the IC50 (pIC50) in experiment [1], in experiment [2] (cell material: Lysate mix), in experiment [3] (cell material: Lysate mix) and in experiment [4] was under 4.52 in each case.
Turning to `CCNC(=O)c1cc(Nc2cc(C)[nH]n2)nc(N2CCN(Cc3ccc(S(=O)(=O)F)cc3)CC2)n1`, the pIC50 in experiment [1] was under 4.52; in experiment [2] (cell material: Lysate mix), 5.89; in experiment [3] (cell material: Lysate mix) it was under 4.52; in experiment [4], under 4.52.
Consider `C#CCNC(=O)c1cc(Nc2cc(C3CC3)[nH]n2)nc(N2CCN(Cc3ccc(S(=O)(=O)F)cc3)CC2)n1`, for which the pIC50 in experiment [1] was under 4.52; in experiment [2] (cell material: Jurkat cells), 5.94; in experiment [2] (cell material: Jurkat lysate), 5.42; in experiment [2] (cell material: Lysate mix), 6.08; in experiment [3] (cell material: Jurkat cells), 5.67; in experiment [3] (cell material: Jurkat lysate) it was under 4.52. Further, the pIC50 in experiment [3] (cell material: Lysate mix) and in experiment [4] was under 4.52 throughout.

One may read the pIC50 as −log10 of the IC50, conventionally taken in molar units. A higher pIC50 goes with a low IC50.

The values are drawn from the supplement of paper PMC12076712.
